# From patent publication US11833144B2, “Treating autoimmune disease” (Mayo Foundation for Medical Education and Research, priority 2020, dated 2023)
# Assays:
# murine B cells = assay: Murine B cell proliferation (CellTrace Violet, cell number) and class switch to IgG1 in vitro; format: cell-based, mouse; details: for proliferation of mouse B cells (CTV dilution) / B cell proliferation, exogenous fatty acid alone / IgG1 class switch, exogenous fatty acid alone: LPS/IL-4 activated; for proliferation of mouse B cells (CTV dilution): SCD inhibitor alone; for rescue of proliferation and IgG1 class switch upon SSI-4 treatment: SSI-4 with exogenous fatty acid; for B cell proliferation, exogenous fatty acid alone / IgG1 class switch, exogenous fatty acid alone: fatty acid-BSA conjugate, no inhibitor
# Method: Mouse B cells were isolated from pooled single cell suspensions of spleen and peripheral lymph nodes using CD19 Microbeads (Miltenyi) or Mouse B cell Isolation Kit (Stemcell Technologies). B cells were stimulated with LPS (10 μg/mL; Sigma-Aldrich) and recombinant IL-4 cytokine (10 ng/mL; Tonbo Bioscience) with or without SCD inhibitor SSI-4, and proliferation was measured by dilution of CellTrace Violet proliferation dye (Thermo Fisher Scientific). B cells were also stimulated with anti-IgM (10 μg/mL; Jackson ImmunoResearch), anti-CD40 (10 μg/mL; BioXcell) and IL-4 (10 ng/mL; Tonbo Bioscience), or TLR ligand CpG (2.5 μM; IDT), recombinant IL-4 and IL-5 (10 ng/mL; Tonbo Bioscience) cytokines. To test the function of monounsaturated and saturated fatty acids, B cells were activated in presence of exogenous fatty acid-BSA conjugate. Palmitoleic acid (NU-CHEK PREP, INC), palmitic acid (NU-CHEK PREP, INC), stearic acid (NU-CHEK PREP, INC) were conjugated with fatty acid free BSA (Sigma-Aldrich) as described elsewhere (Wang et al., Immunity 35:871-882 (2011)). Human B cells were activated with CpG OND2006 (2.5 μM; IDT), recombinant human cytokine IL-10 ([…]; Peprotech), IL-15 (10 ng/mL; Peprotech), IL-4 (10 ng/mL; Biolegend), IL-2 (10 unit/mL) and anti-human CD40 (1 μg/mL; BioXcell). Human B cell proliferation was measured by ^3[H]-thymidine incorporation (1 μCi/mL) (American Radiolabeled Chemicals). For analysis of surface markers, cells were stained in PBS containing 1% (w/v) bovine serum albumin on ice for 30 minutes, with anti-IgG1 (RMG1-1, Biolegend), anti-CD19 (ID3, Biolegend) anti-B220 (RA3-6B2, Biolegend), anti-CD4 (GK1.5, Biolegend), anti-CD8 (53-6.7, Biolegend), anti-CD25 (PC16, Biolegend), anti-GL7 (GL-7, Biolegend), anti-CD95 (Jo2, BD Biosciences), anti-CD138 (281-2, Biolegend), anti-IgD (11-26c.2a, Biolegend), anti-PD-1 (J43, ThermoFisher), anti-IgM (II/41, ThermoFisher). Antigen specific GC response was detected with tetramer NP-phycoerythrin conjugated with PE (Biosearch Technologies). CXCR5 was stained with biotinylated anti-CXCR5 (2G8) followed by staining with streptavidin-conjugated PE (both from BD Biosciences). Cell viability was assessed using the Fixable Dye Ghost 510 (Tonbo Bioscience) or Annexin V cell apoptosis kit with 7-AAD (ThermoFisher) following the manufacturer's protocol. Phosflow staining for phospho-S6 (S235/236) was performed using Phosflow Fix/Perm kit (BD Biosciences). Mitochondrial potential was measured by staining with 20 nM TMRM (ThermoFisher) following manufacturer's instructions. Flow cytometry was performed on the LSR II, LSR Fortessa (BD Biosciences) or Attune NxT (ThermoFisher) cytometers, and analysis was performed using FlowJo software (Tree Star).
# activated human B cells = assay: Seahorse OCR / ECAR in activated human B cells; format: cell-based; details: exogenous fatty acid, 72 hours
# Method: (§1) The bioenergetic activities of the OCR and ECAR were measured using a Seahorse XFe96 Extracellular Flux Analyzed following established protocols (Agilent). Briefly, B cells were seeded at 200,000 cells/well on Cell-Tak (Corning) coated XFe96 plate with fresh XF media (Seahorse XF RPMI medium containing 10 mM glucose, 2 mM L-glutamine, and 1 mM sodium pyruvate, PH 7.4; all reagents from Agilent). OCR was measured in the presence of Oligomycin (1.5 μM; Sigma-Aldrich), FCCP (1.5 μM; Sigma-Aldrich), and Rotenone (1 μM; Sigma-Aldrich)/Antimycin A (1 μM; Sigma-Aldrich) in Mito Stress assay. For ECAR measurement, B cells were seeded in XFe96 plate with fresh Seahorse XF RPMI medium with 2 mM L-glutamine (PH 7.4), and treated with glucose (10 mM; Agilent), Oligomycin (1.5 and 2-DG (50 mM; Sigma-Aldrich) orderly in Glycolysis Stress assay.
# activated murine B cells = assay: Seahorse OCR / ECAR in activated murine B cells; format: cell-based, mouse; details: exogenous fatty acid, 48 h
# Method: as §1
compound,measurement,setting,value
"Cn1cnc(N)c2ncnc1-2 [3-MA, 3-methyladenine, reference compound]",rescue of B cell proliferation and class switch to IgG1 in the presence of SSI-4,"murine B cells; 3-MA 1 mM, wortmannin 1 μM",successfully rescued
"CNC(=O)c1cccc(NC(=O)N2CCC(Oc3ccccc3Cl)CC2)c1 [A939572, reference compound]",proliferation of mouse B cells (CTV dilution),murine B cells,capable of inhibiting B cell proliferation
"Cc1nnc(-c2ccc(N3CCC(Oc4ccccc4C(F)(F)F)CC3)nn2)s1 [MF438, reference compound]",proliferation of mouse B cells (CTV dilution),murine B cells,capable of inhibiting B cell proliferation
"CCCCCCCCCCCCCCCC(=O)O [PA, palmitic acid]",rescue of proliferation and IgG1 class switch upon SSI-4 treatment,murine B cells; LPS/IL-4,no rescue effects
same,"B cell proliferation, exogenous fatty acid alone",murine B cells,unable to promote
same,"IgG1 class switch, exogenous fatty acid alone",murine B cells,unable to promote
"CCCCCC/C=C\CCCCCCCC(=O)O [PO, palmitoleic acid]",respiration (OCR) in activated human B cells,activated human B cells,did enhance OCR
same,OCR upon LPS/IL-4 stimulation in mouse B cells,activated murine B cells,did enhance OCR
same,B cell respiration (OCR),activated murine B cells; CpG/IL-4/IL-5 (PO: CpG and anti-IgM/anti-CD40) stimulation,did not promote respiration
same,rescue of proliferation and IgG1 class switch in SCD1/2 deficient B cells,"murine B cells; B cells from Scd1 and Scd2 deficient mice, LPS/IL-4",partial rescue effect
same,rescue of proliferation and IgG1 class switch upon SSI-4 treatment,murine B cells; LPS/IL-4,"substantial, but incomplete, rescue effects"
same,"IgG1 class switch, exogenous fatty acid alone",murine B cells,did not improve class switch
"CCCCCCCCCCCCCCCCCC(=O)O [SA, stearic acid]",rescue of proliferation and IgG1 class switch upon SSI-4 treatment,murine B cells; LPS/IL-4,no rescue effects
same,"B cell proliferation, exogenous fatty acid alone",murine B cells,unable to promote
same,"IgG1 class switch, exogenous fatty acid alone",murine B cells,unable to promote
"CCOC(=O)[C@@]1(CCCCCCOc2ccc(Cl)cc2)CO1 [etomoxir, reference compound]",effect of OA treatment on class switch in presence of etomoxir,"murine B cells; OA plus etomoxir 40 μM, 72 hours",negated the effects of OA treatment
same,B cell class switch to IgG1,"murine B cells; etomoxir 40 μM, LPS/IL-4, 72 hours",reduced B cell class switch
